Data set [1] concerns the target T1, Peroxisome proliferator-activated receptor alpha (Homo sapiens, UniProt Q07869).
T1 sequence (Q07869 whole entry): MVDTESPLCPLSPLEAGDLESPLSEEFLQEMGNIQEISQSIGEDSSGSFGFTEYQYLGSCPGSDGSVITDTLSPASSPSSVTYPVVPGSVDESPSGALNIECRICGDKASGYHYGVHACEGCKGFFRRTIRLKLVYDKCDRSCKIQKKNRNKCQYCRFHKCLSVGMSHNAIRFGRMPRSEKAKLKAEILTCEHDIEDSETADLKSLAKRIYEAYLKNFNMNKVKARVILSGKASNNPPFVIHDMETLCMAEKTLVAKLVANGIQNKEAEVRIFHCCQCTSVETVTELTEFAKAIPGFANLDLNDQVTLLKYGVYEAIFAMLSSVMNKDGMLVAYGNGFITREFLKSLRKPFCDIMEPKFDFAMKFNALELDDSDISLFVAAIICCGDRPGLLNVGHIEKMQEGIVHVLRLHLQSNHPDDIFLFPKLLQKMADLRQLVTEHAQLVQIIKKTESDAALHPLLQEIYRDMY
Description: Agonist activity at human PPARalpha assessed as receptor activation by cell based assay

Data set [2] addresses T2, Peroxisome proliferator-activated receptor alpha (Mus musculus, UniProt P23204).
T2 sequence (P23204 whole entry): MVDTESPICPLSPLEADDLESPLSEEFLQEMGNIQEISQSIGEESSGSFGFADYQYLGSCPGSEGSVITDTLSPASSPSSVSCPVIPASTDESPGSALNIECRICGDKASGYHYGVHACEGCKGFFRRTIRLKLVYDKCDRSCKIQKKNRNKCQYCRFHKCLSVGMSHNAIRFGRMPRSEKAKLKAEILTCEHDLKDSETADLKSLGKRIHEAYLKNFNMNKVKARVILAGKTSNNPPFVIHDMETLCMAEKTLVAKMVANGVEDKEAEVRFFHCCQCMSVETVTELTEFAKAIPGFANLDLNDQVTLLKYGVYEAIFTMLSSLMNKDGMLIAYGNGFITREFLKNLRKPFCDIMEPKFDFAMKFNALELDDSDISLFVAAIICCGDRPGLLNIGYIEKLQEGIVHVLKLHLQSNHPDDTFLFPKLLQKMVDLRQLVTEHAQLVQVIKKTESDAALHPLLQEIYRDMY
Description: (§1) Agonist activity at mouse PPARalpha assessed as receptor activation by cell based assay

The target in data set [3] is T3, Peroxisome proliferator-activated receptor delta (Homo sapiens, UniProt Q03181).
T3 sequence (Q03181 whole entry): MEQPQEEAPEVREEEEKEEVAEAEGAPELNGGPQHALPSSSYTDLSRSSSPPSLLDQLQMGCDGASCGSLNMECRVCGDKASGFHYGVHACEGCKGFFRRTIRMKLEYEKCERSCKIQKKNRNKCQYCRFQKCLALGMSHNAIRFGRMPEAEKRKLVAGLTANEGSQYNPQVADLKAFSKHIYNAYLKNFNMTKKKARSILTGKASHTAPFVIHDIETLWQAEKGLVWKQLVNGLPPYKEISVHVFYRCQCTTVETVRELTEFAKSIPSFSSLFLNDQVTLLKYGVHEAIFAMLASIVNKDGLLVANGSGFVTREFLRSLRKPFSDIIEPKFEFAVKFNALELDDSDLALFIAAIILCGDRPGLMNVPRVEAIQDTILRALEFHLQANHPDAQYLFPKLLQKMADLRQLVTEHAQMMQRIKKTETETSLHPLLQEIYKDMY
Description: Agonist activity at human PPARdelta assessed as receptor activation by cell based assay

Data set [4] deals with T4, Peroxisome proliferator-activated receptor delta (Mus musculus, UniProt P35396).
T4 sequence (P35396 whole entry): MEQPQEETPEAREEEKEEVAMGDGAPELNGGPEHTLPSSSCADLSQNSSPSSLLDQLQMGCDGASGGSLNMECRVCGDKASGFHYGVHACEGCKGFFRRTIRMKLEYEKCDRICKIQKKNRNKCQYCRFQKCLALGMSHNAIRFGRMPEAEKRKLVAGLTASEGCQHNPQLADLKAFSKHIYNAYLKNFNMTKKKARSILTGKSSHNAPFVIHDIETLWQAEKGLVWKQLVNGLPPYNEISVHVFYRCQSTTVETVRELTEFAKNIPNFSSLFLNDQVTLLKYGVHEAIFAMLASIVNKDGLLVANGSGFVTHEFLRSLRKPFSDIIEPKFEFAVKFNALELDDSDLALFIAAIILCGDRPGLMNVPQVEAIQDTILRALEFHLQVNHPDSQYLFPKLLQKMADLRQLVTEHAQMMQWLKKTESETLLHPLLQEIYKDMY
Description: Agonist activity at mouse PPARdelta assessed as receptor activation by cell based assay

Data set [5] addresses T5, Peroxisome proliferator-activated receptor gamma (Homo sapiens, UniProt P37231).
T5 sequence (P37231 whole entry): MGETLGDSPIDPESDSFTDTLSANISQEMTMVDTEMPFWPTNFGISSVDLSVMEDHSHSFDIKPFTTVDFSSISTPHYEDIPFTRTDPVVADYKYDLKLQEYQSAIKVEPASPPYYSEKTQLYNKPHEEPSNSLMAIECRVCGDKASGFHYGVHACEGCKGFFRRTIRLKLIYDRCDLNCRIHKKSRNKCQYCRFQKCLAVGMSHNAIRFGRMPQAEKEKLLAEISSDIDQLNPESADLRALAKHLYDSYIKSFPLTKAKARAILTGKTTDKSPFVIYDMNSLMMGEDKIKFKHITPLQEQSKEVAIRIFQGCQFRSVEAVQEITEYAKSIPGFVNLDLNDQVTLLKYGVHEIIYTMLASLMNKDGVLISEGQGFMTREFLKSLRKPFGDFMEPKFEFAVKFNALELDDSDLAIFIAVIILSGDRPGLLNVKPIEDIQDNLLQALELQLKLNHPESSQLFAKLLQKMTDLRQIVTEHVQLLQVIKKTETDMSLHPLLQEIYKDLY
Description: Agonist activity at human PPARgamma assessed as receptor activation by cell based assay

The target in data set [6] is T6, Peroxisome proliferator-activated receptor gamma (Mus musculus, UniProt P37238).
T6 sequence (P37238 whole entry): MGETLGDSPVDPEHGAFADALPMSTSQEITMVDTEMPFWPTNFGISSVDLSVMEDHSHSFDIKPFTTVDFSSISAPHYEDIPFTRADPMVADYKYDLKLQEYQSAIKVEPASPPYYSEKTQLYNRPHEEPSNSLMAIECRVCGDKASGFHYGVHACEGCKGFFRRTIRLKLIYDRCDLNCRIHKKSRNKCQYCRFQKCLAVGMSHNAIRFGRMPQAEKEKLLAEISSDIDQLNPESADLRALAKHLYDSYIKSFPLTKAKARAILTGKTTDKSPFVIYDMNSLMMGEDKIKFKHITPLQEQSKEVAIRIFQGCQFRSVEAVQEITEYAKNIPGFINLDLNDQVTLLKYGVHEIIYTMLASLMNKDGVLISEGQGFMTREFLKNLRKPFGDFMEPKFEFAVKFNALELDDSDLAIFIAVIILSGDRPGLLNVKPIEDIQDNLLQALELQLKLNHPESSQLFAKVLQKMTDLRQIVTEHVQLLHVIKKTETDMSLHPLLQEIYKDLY
Description: Agonist activity at mouse PPARgamma assessed as receptor activation by cell based assay

The target of data set [7] is T7, Peroxisome proliferator-activated receptor alpha (Mus musculus) (UniProt P23204).
T7 sequence (whole entry): T2 sequence (P23204 whole entry)
Description: as §1

Data set [8] is described as follows: Oral bioavailability in mouse at 5 mg/kg. Conditions: in vivo. The class given is ADME, organism-based.
Data set [9] in a line: Clearance in mouse plasma at 0.2 mg/kg, iv or 5 mg/kg, po. The class given is ADME, organism-based.
The nature of data set [10]: Cmax in mouse plasma at 5 mg/kg, po. The arrangement: dose 5 mg/kg, route oral. The class given is ADME, organism-based.
The nature of data set [11]: Volume of distribution in mouse plasma at 0.2 mg/kg, iv or 5 mg/kg, po. The class given is ADME, organism-based. Particulars: read-out: Vdss.
The nature of data set [12]: Half life in mouse plasma at 0.2 mg/kg, iv or 5 mg/kg, po. The class given is ADME, organism-based.
The nature of data set [13]: AUC in mouse plasma at 5 mg/kg, po. The class given is ADME, organism-based. The arrangement: dose 5 mg/kg, route oral.
In data set [14] the test system is Mus musculus. As to the kind of experiment: Reduction of triglyceride level in human Apo-A1 transgenic C57B6 mouse at 20 mg/kg, po bid after 5 days. The class given is functional. The arrangement: scale not given: the % may be the effect or the level left.
Data set [15] concerns Mus musculus. The experiment in a line: Reduction of VLDL cholesterol level in human Apo-A1 transgenic C57B6 mouse at 20 mg/kg, po bid after 5 days. The class given is functional. The arrangement: scale not given: the % may be the effect or the level left.
The test system of data set [16] is Mus musculus. As to the kind of experiment: Reduction of LDL cholesterol level in human Apo-A1 transgenic C57B6 mouse at 20 mg/kg, po bid after 5 days. The class given is functional. The arrangement: scale not given: the % may be the effect or the level left.
The subject of data set [17] is Mus musculus. The experiment in a line: Elevation of HDL cholesterol level in human Apo-A1 transgenic C57B6 mouse at 20 mg/kg, po bid after 5 days. The class given is functional.

Here are results for three compounds from ChEMBL document CHEMBL1140804, “Design, synthesis and evaluation of trifluoromethane sulfonamide derivatives as new potent and selective peroxisome proliferator-activated receptor alpha agonists” (Bioorg Med Chem Lett, 2008).

SMILES strings stand for the structures.

Usually EC50 stands for the concentration at which the effect is half-maximal. Consider `Cc1nc(-c2ccc(C(F)(F)F)cc2)sc1C(=O)NCc1ccc(NS(=O)(=O)C(F)(F)F)cc1`, for which the EC50 in data set [1] turned out to be 0.3 nM; in [2], 2 nM; in data set [3], 400 nM; in [4] it was 300 nM; in [5], 500 nM; in [6], 600 nM. Besides, the Activity in data set [7] was 98%.
`Cc1nc(-c2ccc(C(F)(F)F)cc2)sc1C(=O)NCc1ccc(NS(=O)(=O)CC(F)(F)F)cc1`: the 50% effective concentration (EC50) in data set [1] was 3 nM; in data set [2], 60 nM; in data set [3] it was > 10000 nM; in [4], > 10000 nM; in data set [5] it was 300 nM; in [6] it was 300 nM. Besides, the Activity in data set [7] was 74%.
A word on the bioavailability: it is dose-corrected exposure relative to a reference, in per cent. The Cmax is the highest concentration seen after dosing. Broadly, the half-life is the time needed for the level to fall by half in the phase considered. As a reminder, the AUC is the area under the concentration-time curve, a measure of exposure. `O=C(NCc1ccc(NS(=O)(=O)C(F)(F)F)cc1)c1ccc(-c2ccc(Cl)cc2)cc1` returned a bioavailability in data set [8] of 16%. For the same compound, the clearance in data set [9] is 0.78 mL/min/kg. In data set [10], the Cmax came out at 4520 ng/mL. In addition, the Vd in data set [11] stood at 0.22 L/kg. The half-life in data set [12] is 4.9 h. The compound further came in with an area under the curve (AUC) in data set [13] of 18800 ng·h/mL. In addition, the Activity in data set [14] is -69%; in data set [15] it was -85%; in [16] it was -55%; in data set [17], 102%; in data set [7] it was 123%. For the same compound, the concentration for a half-maximal effect (EC50) in data set [1] was 5 nM; in [2], 20 nM; in data set [3] it was > 10000 nM; in data set [4] it was > 10000 nM; in data set [5], 1100 nM; in data set [6] it was 600 nM.
